Here are results for 4 molecules from patent publication US12252524B2, “GIP/GLP1 co-agonist compounds” (Eli Lilly and Company, priority 2018, dated 2025).

One assay has as its target T1, human GIP receptor (Homo sapiens, UniProt P48546).
T1 construct: expressed in transfected cells; crude membranes
T1 sequence (P48546 22-466): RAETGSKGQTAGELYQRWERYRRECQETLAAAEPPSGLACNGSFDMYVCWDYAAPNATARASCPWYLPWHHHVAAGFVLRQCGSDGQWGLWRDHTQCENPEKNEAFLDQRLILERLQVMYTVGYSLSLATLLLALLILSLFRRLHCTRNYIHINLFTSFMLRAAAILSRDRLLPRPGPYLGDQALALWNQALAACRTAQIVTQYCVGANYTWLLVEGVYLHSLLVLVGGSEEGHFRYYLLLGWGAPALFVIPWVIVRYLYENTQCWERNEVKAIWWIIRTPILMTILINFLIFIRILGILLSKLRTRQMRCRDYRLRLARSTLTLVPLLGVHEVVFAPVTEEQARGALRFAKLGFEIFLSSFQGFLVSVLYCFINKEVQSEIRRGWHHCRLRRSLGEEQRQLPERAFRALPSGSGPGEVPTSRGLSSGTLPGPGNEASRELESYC
Kind of assay: [125I]-GIP binding (SPA), human GIP receptor. The settings on record: read-out: hGIPR Ki, nM (SEM, n).

In assay [1] the target is T2, human GLP-1R (Homo sapiens, UniProt P43220). Kind of assay: GLP-1R HEK293 cell membrane [35S]GTPγS binding assay. It counts as biochemical. Also noted: expressed in transfected cells; host or cells: HEK293 cells expressing human GLP-1R; membranes. The settings on record: HEK293 cell membranes expressing human GLP-1R, [35S]GTPγS binding; read-out: hGLP1R GTPgS Rel EC50 nM (SEM, n). In outline: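 Membranes from HEK293 cells expressing the receptor incubated with peptide and […] [35S]GTPγS in HEPES pH 7.4 buffer with NaCl, MgCl2, saponin and BSA, 30 min at room temperature. Gαs-bound label captured by anti-Gαs antibody/SPA beads and counted; EC50 from four-parameter logistic fit.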
T2 sequence (P43220 24-463): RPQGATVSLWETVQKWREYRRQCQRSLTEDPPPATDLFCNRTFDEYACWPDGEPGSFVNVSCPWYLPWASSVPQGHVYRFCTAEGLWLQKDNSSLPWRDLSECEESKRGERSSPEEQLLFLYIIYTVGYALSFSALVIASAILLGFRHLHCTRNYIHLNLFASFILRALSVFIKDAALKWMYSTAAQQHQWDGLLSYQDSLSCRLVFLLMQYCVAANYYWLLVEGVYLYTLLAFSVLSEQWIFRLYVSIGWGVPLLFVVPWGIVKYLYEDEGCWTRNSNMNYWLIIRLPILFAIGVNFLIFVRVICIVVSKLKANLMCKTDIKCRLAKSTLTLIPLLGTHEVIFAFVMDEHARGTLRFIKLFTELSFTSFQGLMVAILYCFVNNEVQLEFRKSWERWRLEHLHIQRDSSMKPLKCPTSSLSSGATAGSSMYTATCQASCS

The target of the next assay is T3, human Gcg receptor (Homo sapiens, UniProt P47871).
T3 construct: expressed in transfected cells; crude membranes
T3 sequence (P47871 26-477): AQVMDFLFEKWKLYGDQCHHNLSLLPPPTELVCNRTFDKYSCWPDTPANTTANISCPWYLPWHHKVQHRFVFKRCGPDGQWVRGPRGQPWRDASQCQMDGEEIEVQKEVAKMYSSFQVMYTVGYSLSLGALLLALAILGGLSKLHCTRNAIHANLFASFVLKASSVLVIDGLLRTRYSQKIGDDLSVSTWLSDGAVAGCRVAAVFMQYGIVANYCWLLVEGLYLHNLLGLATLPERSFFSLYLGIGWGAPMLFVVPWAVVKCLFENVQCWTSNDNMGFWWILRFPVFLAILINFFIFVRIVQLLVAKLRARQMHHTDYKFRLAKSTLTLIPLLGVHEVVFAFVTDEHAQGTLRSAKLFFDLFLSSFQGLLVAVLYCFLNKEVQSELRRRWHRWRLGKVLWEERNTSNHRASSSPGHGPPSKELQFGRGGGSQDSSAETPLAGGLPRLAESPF
Kind of assay: [125I]-Glucagon binding (SPA), human Gcg receptor. The note with it: read-out: hGLcgR Ki, nM (SEM, n). In outline:
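Scintillation counts are taken after membranes and WGA beads incubate and settle for 12 hours at room temperature. Buffer is 25 mM HEPES, pH 7.4, with CaCl2, MgCl2, bacitracin and Tween-20. Ki values, from four-parameter IC50 fits, are geometric means over independent days.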

The target of assay [2] is T4, gastric inhibitory peptide receptor (GIPR) (Homo sapiens, UniProt P48546).
T4 sequence (P48546 22-466): T1 sequence (P48546 22-466)
Kind of assay: cAMP pharmacological functional assay in presence of casein, hGIPR. It is filed as cell-based. The note with it: HEK293 cells expressing hGIPR, 0.1% Casein, geometric mean; read-out: hGIPR cAMP Rel EC50 nM (SEM, n).

In assay [3] the target is human GLP-1 receptor (GLP-1R) (Homo sapiens, UniProt P43220). Kind of assay: cAMP pharmacological functional assay in presence of casein, hGLP-1R. It is filed as cell-based. The settings on record: HEK293 cells expressing hGLP-1R, 0.1% Casein, geometric mean; read-out: hGLP1R cAMP Rel EC50 nM (SEM, n).
human GLP-1 receptor (GLP-1R), sequence (P43220 24-463): as the sequence (P43220 24-463) above
Assay [4] addresses T2, human GLP-1R. The experiment in a line: GLP-1R CHO cell β-arrestin recruitment assay. It is filed as cell-based. Also noted: host or cells: CHO-K1 PathHunter cells, assay-ready frozen. The settings on record: for EC50: CHO-K1 cells; for hGLP1R B-Arrestin2 % Top: normalized to GLP-1 maximum control. In outline:
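PathHunter CHO-K1 cells with ProLink-tagged human GLP-1R and enzyme-acceptor-tagged β-arrestin-2 treated with serially diluted peptides in assay buffer containing 0.1% hydrolyzed casein, 90 min at 37 °C.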

The target of assay [5] is T2, human GLP-1R. Kind of assay: [125I]-GLP-1 binding (SPA), human GLP-1 receptor. Further details: expressed in transfected cells; crude membranes. The note with it: read-out: hGLP1R Ki, (nM) (SEM, n). The method, boiled down: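 Ki values are geometric means with SEM over independent replicates on different days, derived from IC50s fitted by four-parameter nonlinear regression. The assay used crude cell membranes in HEPES buffer, pH 7.4, containing CaCl2, MgCl2, bacitracin and TWEEN-20.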

Setting [6] is: 0.1% w/v hydrolyzed Casein, read-out: hGLP1R B-Arrestin2 Rel EC50.
Setting [7] is: PathHunter β-arrestin-2 recruitment, 0.1% casein, read-out: hGLP1R B-Arrestin2 Rel EC50 uM (SEM, n).

Numbered stars: 1 amine (or outer) side, 2 acyl side, 3 side chain; on linkers, the order of the positions; unused ones are H or OH. Square brackets hold non-standard residues; d marks the D form. Side chains are listed from the residue outwards. Peptide text beside a SMILES is read from it. * marks the point of attachment. C20 diacid = O=C(O)CCCCCCCCCCCCCCCCCCC(=O)*; C18 diacid = O=C(O)CCCCCCCCCCCCCCCCC(=O)*; γGlu = O=C(O)[C@H](CCC(=O)[*:2])N[*:1]; αMeY = C[C@](N)(Cc1ccc(O)cc1)C(=O)O; αMeL = CC(C)C[C@](C)(N)C(=O)O; Orn = NCCC[C@H](N)C(=O)O; AEEA = NCCOCCOCC(=O)O; Aib = CC(C)(N)C(=O)O

Regarding `CC[C@H](C)[C@H](NC(=O)[C@H](CC(C)C)NC(=O)[C@H](Cc1ccc(O)cc1)NC(=O)[C@H](CCC(=O)O)NC(=O)[C@@H](NC(=O)[C@H](Cc1ccccc1)NC(=O)[C@H](C)NC(=O)C(C)(C)NC(=O)[C@H](CCC(N)=O)NC(=O)[C@H](C)NC(=O)[C@H](CCCCNC(=O)COCCOCCNC(=O)COCCOCCNC(=O)CC[C@H](NC(=O)CCCCCCCCCCCCCCCCC(=O)O)C(=O)O)NC(=O)[C@H](CCCCN)NC(=O)[C@H](CC(=O)O)NC(=O)[C@H](CC(C)C)NC(=O)[C@H](CC(C)C)NC(=O)[C@@H](NC(=O)[C@H](CO)NC(=O)[C@H](Cc1ccc(O)cc1)NC(=O)[C@H](CC(=O)O)NC(=O)[C@H](CO)NC(=O)[C@@H](NC(=O)[C@H](Cc1ccccc1)NC(=O)[C@@H](NC(=O)CNC(=O)[C@H](CCC(=O)O)NC(=O)C(C)(C)NC(=O)[C@@H](N)Cc1ccc(O)cc1)[C@@H](C)O)[C@@H](C)O)[C@@H](C)CC)[C@@H](C)CC)C(=O)N[C@@H](C)C(=O)NCC(=O)NCC(=O)N1CCC[C@H]1C(=O)N[C@@H](CO)C(=O)N[C@@H](CO)C(=O)NCC(N)=O` [Example 272] (H-Y[Aib]EGTFTSDYSILLDKK([AEEA-AEEA-γGlu-C18 diacid])AQ[Aib]AFIEYLIAGGPSSG-NH2), the Ki turned out to be 0.0353 nM on human GIP receptor, 550 nM on human Gcg receptor and 1.22 nM on human GLP-1R [5]. The EC50 at human GLP-1R [1] was 0.651 nM; in assay [2], 0.0464 nM; in assay [3], 0.0435 nM; on human GLP-1R [4] (setting [6]), more than 12 µM; on human GLP-1R [4] (setting [7]) it was more than 12 µM.

Regarding `CC[C@H](C)[C@H](NC(=O)[C@H](CC(C)C)NC(=O)[C@H](Cc1ccc(O)cc1)NC(=O)[C@H](CCC(=O)O)NC(=O)[C@@H](NC(=O)[C@H](Cc1ccccc1)NC(=O)[C@H](CCC(=O)O)NC(=O)C(C)(C)NC(=O)[C@H](CCC(N)=O)NC(=O)[C@H](C)NC(=O)[C@H](CCCCNC(=O)COCCOCCNC(=O)COCCOCCNC(=O)CC[C@H](NC(=O)CCCCCCCCCCCCCCCCCCC(=O)O)C(=O)O)NC(=O)[C@H](CCCCN)NC(=O)[C@H](CC(=O)O)NC(=O)[C@H](CC(C)C)NC(=O)[C@](C)(CC(C)C)NC(=O)[C@@H](NC(=O)[C@H](CO)NC(=O)[C@H](Cc1ccc(O)cc1)NC(=O)[C@H](CC(=O)O)NC(=O)[C@H](CO)NC(=O)[C@@H](NC(=O)[C@H](Cc1ccccc1)NC(=O)[C@@H](NC(=O)CNC(=O)[C@H](CCC(=O)O)NC(=O)C(C)(C)NC(=O)[C@H](N)Cc1ccc(O)cc1)[C@@H](C)O)[C@@H](C)O)[C@@H](C)CC)[C@@H](C)CC)C(=O)N[C@@H](C)C(=O)NCC(=O)NCC(=O)N1CCC[C@H]1C(=O)N[C@@H](CO)C(=O)N[C@@H](CO)C(=O)NCC(=O)N[C@@H](C)C(=O)N1CCC[C@H]1C(=O)N1CCC[C@H]1C(=O)N1CCC[C@H]1C(=O)N[C@@H](CO)C(N)=O` [Example 290] (H-[dY][Aib]EGTFTSDYSI[αMeL]LDKK([AEEA-AEEA-γGlu-C20 diacid])AQ[Aib]EFIEYLIAGGPSSGAPPPS-NH2), the Ki is 0.0617 nM at human GIP receptor, 308 nM at human Gcg receptor and 2.44 nM on human GLP-1R [5]. Also, the EC50 came to 0.466 nM at human GLP-1R [1], 0.0629 nM in assay [2], 0.179 nM in assay [3] and 0.0238 µM at human GLP-1R [4] (setting [7]). Besides, the “hGLP1R B-Arrestin2 % Top” value on human GLP-1R [4] was 20.0%.

For the molecule `CC[C@H](C)[C@H](NC(=O)[C@H](CC(C)C)NC(=O)[C@H](Cc1ccc(O)cc1)NC(=O)[C@@H](CCC(=O)O)NC(=O)[C@@H](NC(=O)[C@H](Cc1ccccc1)NC(=O)[C@H](C)NC(=O)C(C)(C)NC(=O)[C@H](CCC(N)=O)NC(=O)[C@H](C)NC(=O)[C@H](CCCCNC(=O)COCCOCCNC(=O)COCCOCCNC(=O)CC[C@H](NC(=O)CCCCCCCCCCCCCCCCCCC(=O)O)C(=O)O)NC(=O)[C@H](CCCN)NC(=O)[C@H](CC(=O)O)NC(=O)[C@H](CC(C)C)NC(=O)[C@](C)(CC(C)C)NC(=O)[C@@H](NC(=O)[C@H](CO)NC(=O)[C@H](Cc1ccc(O)cc1)NC(=O)[C@H](CC(=O)O)NC(=O)[C@H](CO)NC(=O)[C@@H](NC(=O)[C@H](Cc1ccccc1)NC(=O)[C@@H](NC(=O)CNC(=O)[C@H](CCC(=O)O)NC(=O)C(C)(C)NC(=O)[C@H](N)Cc1ccc(O)cc1)[C@@H](C)O)[C@@H](C)O)[C@@H](C)CC)[C@@H](C)CC)C(=O)N[C@@H](C)C(=O)NCC(=O)NCC(=O)N1CCC[C@H]1C(=O)N[C@@H](CO)C(=O)N[C@@H](CO)C(=O)NCC(=O)N[C@@H](C)C(=O)N1CCC[C@H]1C(=O)N1CCC[C@H]1C(=O)N1CCC[C@H]1C(=O)N[C@@H](CO)C(N)=O` [Example 291] (H-[dY][Aib]EGTFTSDYSI[αMeL]LD[Orn]K([AEEA-AEEA-γGlu-C20 diacid])AQ[Aib]AFI[dE]YLIAGGPSSGAPPPS-NH2), the values for the Ki at human GIP receptor, at human Gcg receptor and at human GLP-1R [5] were 0.129 nM, more than 872 nM and 3.16 nM, respectively. Moreover, the EC50 at human GLP-1R [1] is 0.466 nM; in assay [2] it was 0.118 nM; in assay [3], 0.15 nM; at human GLP-1R [4] (setting [6]) it was more than 10 µM; on human GLP-1R [4] (setting [7]), more than 10 µM.

`CC[C@H](C)[C@H](NC(=O)[C@H](CC(C)C)NC(=O)[C@](C)(Cc1ccc(O)cc1)NC(=O)[C@H](CCC(=O)O)NC(=O)[C@@H](NC(=O)[C@H](Cc1ccccc1)NC(=O)[C@H](CCC(=O)O)NC(=O)C(C)(C)NC(=O)[C@H](CCC(N)=O)NC(=O)[C@H](C)NC(=O)[C@H](CCCCNC(=O)COCCOCCNC(=O)COCCOCCNC(=O)CC[C@H](NC(=O)CCCCCCCCCCCCCCCCCCC(=O)O)C(=O)O)NC(=O)[C@H](CCCCN)NC(=O)[C@H](CC(=O)O)NC(=O)[C@H](CC(C)C)NC(=O)[C@](C)(CC(C)C)NC(=O)[C@@H](NC(=O)[C@H](CO)NC(=O)[C@H](Cc1ccc(O)cc1)NC(=O)[C@H](CC(=O)O)NC(=O)[C@H](CO)NC(=O)[C@@H](NC(=O)[C@H](Cc1ccccc1)NC(=O)[C@@H](NC(=O)CNC(=O)[C@H](CCC(=O)O)NC(=O)C(C)(C)NC(=O)[C@H](N)Cc1ccc(O)cc1)[C@@H](C)O)[C@@H](C)O)[C@@H](C)CC)[C@@H](C)CC)C(=O)N[C@@H](C)C(=O)NCC(=O)NCC(=O)N1CCC[C@H]1C(=O)N[C@@H](CO)C(=O)N[C@@H](CO)C(=O)NCC(=O)N[C@@H](C)C(=O)N1CCC[C@H]1C(=O)N1CCC[C@H]1C(=O)N1CCC[C@H]1C(=O)N[C@@H](CO)C(N)=O` [Example 292] (H-[dY][Aib]EGTFTSDYSI[αMeL]LDKK([AEEA-AEEA-γGlu-C20 diacid])AQ[Aib]EFIE[αMeY]LIAGGPSSGAPPPS-NH2; N-terminus assumed): the Ki amounted to 0.0547 nM on human GIP receptor, 595 nM at human Gcg receptor and 1.19 nM on human GLP-1R [5]. The EC50 on human GLP-1R [1] was found to be 0.429 nM; in assay [2], 0.0682 nM; in assay [3], 0.183 nM; at human GLP-1R [4] (setting [7]), 0.00774 µM. For the same molecule, at human GLP-1R [4], the “hGLP1R B-Arrestin2 % Top” value worked out at 29.0%.

For orientation: Ki means the dissociation constant of the complex between target and ligand, obtained from inhibition or displacement. Broadly, the EC50 is the concentration that produces a half-maximal response.
